We go through six compounds from BindingDB's records for doi:10.7270/Q2ZP450S (Catholic University of Daegu, 2017).

The target in the assay is T1, Tyrosine-protein phosphatase non-receptor type 1 (Homo sapiens, UniProt P18031).
T1 sequence (P18031 whole entry): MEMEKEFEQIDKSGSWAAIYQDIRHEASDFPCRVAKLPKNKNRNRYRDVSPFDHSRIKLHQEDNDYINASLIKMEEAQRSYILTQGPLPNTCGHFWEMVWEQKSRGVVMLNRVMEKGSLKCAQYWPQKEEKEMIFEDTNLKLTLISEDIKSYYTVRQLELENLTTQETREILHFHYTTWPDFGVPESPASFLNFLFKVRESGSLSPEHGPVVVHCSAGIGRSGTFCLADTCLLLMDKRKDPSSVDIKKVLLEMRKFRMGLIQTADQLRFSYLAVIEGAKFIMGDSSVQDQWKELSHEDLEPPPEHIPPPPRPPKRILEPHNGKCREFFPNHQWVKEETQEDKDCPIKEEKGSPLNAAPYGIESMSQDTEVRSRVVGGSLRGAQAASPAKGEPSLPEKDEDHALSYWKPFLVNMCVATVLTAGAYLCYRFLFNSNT
As to the kind of experiment: PTP1B Assay. The note with it: pH 6; 37 °C. Here is the method: In each 96-well plates (total 200 μL of volume), there were 2 mM p-NPP and PTP1B (0.05-0.1 μg) in a buffer containing 50 mM citrate (pH 6.0), 0.1 M NaCl, 1 mM EDTA, and 1 mM dithiothreitol (DTT) with or without test compound, following by pre-incubated at 37 °C for 10 min, and then implemented with 50 μL of p-NPP. The reaction was finally added with 10 M NaOH.
For orientation: IC50 means the midpoint of a concentration-inhibition curve. A high value points to lower potency. By Ki is commonly meant the dissociation constant of the complex between target and ligand, obtained from inhibition or displacement. A lower Ki goes with tighter binding. For `O=C1C=CC(=C(c2ccc(O)cc2)c2c(-c3ccc(O)cc3O)ccc(CO)c2C#Cc2ccc(O)cc2)C=C1` [PTP1B spring 5 (5)], the half-inhibitory concentration (IC50) is 15.9 µM and the Ki was 13.9 µM.
The compound `COc1ccc(-c2ccc(O)cc2)c(C(c2ccc(O)cc2)c2ccc(O)cc2)c1C#Cc1ccc(O)cc1` [PTP1B spring 7 (7)] came in with an IC50 of 4.8 µM and a Ki of 3 µM.
In the case of `O=C1C=CC(=C(c2ccc(O)cc2)c2c(C#Cc3ccc(O)cc3)cccc2-c2ccc(O)cc2)C=C1` [Selaginellin T (1)], it took 58 µM to reach half-maximal inhibition (IC50).
Turning to `Cc1ccc(-c2ccc(O)cc2)c(C(=C2C=CC(=O)C=C2)c2ccc(O)cc2)c1C#Cc1ccc(O)cc1` [Selaginellin U (2)], half-maximal inhibition (IC50) required 13.8 µM and the inhibition constant Ki stood at 9.7 µM.
For `COc1cc(C#Cc2c(CO)ccc(-c3ccc(O)cc3)c2C(=C2C=CC(=O)C=C2)c2ccc(O)cc2)ccc1O` [Selaginellin V (3)] the same measures were 14.5 µM and 11.3 µM.
For `O=C1C=CC(=C(c2ccc(O)cc2)c2c(C#Cc3ccc(O)cc3)cccc2-c2ccc(O)cc2O)C=C1` [Selaginellin W (4)] the same measures were 14.6 µM and 11.1 µM.
